Measurements: the supplement of paper PMC10307832

Experiments:
Test in all cases: relative viability (nuclei count vs DMSO), 5 days (fraction); higher = more cells survive
QS11 + Pemetrexed = compound: C1CC2=C(C1)C=C(C=C2)OC3=NC(=C4C(=N3)N(C=N4)CC5=CC=C(C=C5)C6=CC=CC=C6)N[C@@H](CC7=CC=CC=C7)CO [QS11] + Nc1nc2[nH]cc(CCc3ccc(C(=O)N[C@@H](CCC(=O)O)C(=O)O)cc3)c2c(=O)[nH]1 [Pemetrexed] (partner 0.2 µM)
Summary of the method: (§1)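 One day after seeding in 1536-well plates, lung cancer cell lines were dosed by pin tool. Dosing was either single-drug or a fixed anchor-drug dose plus five library-drug doses (not always all listed) in √10 steps. After 5 days, nuclei were stained in one fix-and-stain step and counted on 4× images, and relative viability is the nuclei count of treated wells over that of vehicle wells, given as the median of duplicate plates.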

AZ628 + AZD7762 = compound: CC1=C(C=C(C=C1)NC(=O)C2=CC(=CC=C2)C(C)(C)C#N)NC3=CC4=C(C=C3)N=CN(C4=O)C [AZ628] + NC(=O)Nc1cc(-c2cccc(F)c2)sc1C(=O)N[C@H]1CCCNC1 [AZD7762] (partner 0.2 µM)
Summary of the method: as §1

Darinaparsin + Foretinib = compound: C[As](C)SC[C@H](NC(=O)CC[C@H](N)C(=O)O)C(=O)NCC(=O)O [Darinaparsin] + COc1cc2c(Oc3ccc(NC(=O)C4(C(=O)Nc5ccc(F)cc5)CC4)cc3F)ccnc2cc1OCCCN1CCOCC1 [Foretinib] (partner 0.25 µM)
Summary of the method: as §1

Darinaparsin + Dasatinib = compound: C[As](C)SC[C@H](NC(=O)CC[C@H](N)C(=O)O)C(=O)NCC(=O)O [Darinaparsin] + Cc1nc(Nc2ncc(C(=O)Nc3c(C)cccc3Cl)s2)cc(N2CCN(CCO)CC2)n1 [Dasatinib] (partner 0.075 µM)
Summary of the method: as §1

| Cell Line | relative viability (QS11 + Pemetrexed; first compound 0.08 µM) | relative viability (QS11 + Pemetrexed; first compound 0.253 µM) | relative viability (QS11 + Pemetrexed; first compound 0.8 µM) | relative viability (QS11 + Pemetrexed; first compound 2.53 µM) | relative viability (QS11 + Pemetrexed; first compound 8 µM) | relative viability (AZ628 + AZD7762; first compound 0.08 µM) | relative viability (AZ628 + AZD7762; first compound 0.253 µM) | relative viability (AZ628 + AZD7762; first compound 0.8 µM) | relative viability (AZ628 + AZD7762; first compound 2.53 µM) | relative viability (AZ628 + AZD7762; first compound 8 µM) | relative viability (Darinaparsin + Foretinib; first compound 0.08 µM) | relative viability (Darinaparsin + Foretinib; first compound 0.8 µM) | relative viability (Darinaparsin + Foretinib; first compound 2.53 µM) | relative viability (Darinaparsin + Foretinib; first compound 8 µM) | relative viability (Darinaparsin + Dasatinib; first compound 0.08 µM) | relative viability (Darinaparsin + Dasatinib; first compound 0.8 µM) | relative viability (Darinaparsin + Dasatinib; first compound 2.53 µM) | relative viability (Darinaparsin + Dasatinib; first compound 8 µM) |
| --- | --- | --- | --- | --- | --- | --- | --- | --- | --- | --- | --- | --- | --- | --- | --- | --- | --- | --- |
| NCI-H1395 | 0.84 | 0.911 | 1.09 | 0.917 | 1.16 | 0.431 | 0.421 | 0.381 | 0.372 | 0.358 | 1.13 | 0.958 | 0.944 | 0.952 | 0.438 | 0.377 | 0.427 | 0.405 |
| CAL-12T | 1.26 | 1.37 | 1.05 | 1.24 | 1.04 | 0.806 | 0.622 | 0.561 | 0.656 | 0.501 | 1.23 | 0.983 | 1.12 | 1.14 | 0.337 | 0.381 | 0.234 | 0.315 |
| BEN | 0.638 | 0.764 | 0.911 | 0.852 | 0.815 | 0.678 | 0.593 | 0.653 | 0.614 | 0.587 | 0.668 | 0.708 | 0.621 | 0.691 | 0.305 | 0.308 | 0.31 | 0.371 |
| ChaGo-K-1 | – | 0.269 | 0.256 | 0.263 | 0.255 | 0.935 | 0.821 | 0.805 | 0.853 | 0.663 | 0.962 | 0.97 | 0.873 | 1.13 | 0.525 | 0.611 | 0.72 | 0.649 |
| NCI-H2405 | 1.01 | 1.02 | 0.974 | 1.05 | 1.05 | 0.54 | 0.387 | 0.498 | 0.419 | 0.458 | 0.994 | 1.05 | 0.929 | 1.07 | 0.203 | 0.232 | 0.223 | 0.221 |
| NCI-H2087 | 0.646 | 0.646 | 0.675 | 0.692 | 0.757 | 1.04 | 1.04 | 1.03 | 1.13 | 0.298 | 1.44 | 1.09 | 1.03 | 1.37 | 1.11 | 0.906 | 0.793 | 1.52 |
| NCI-H460 | 0.056 | 0.0683 | 0.0585 | 0.0792 | 0.0751 | 0.51 | 0.589 | 0.627 | 0.672 | 0.596 | 1.04 | 1.04 | 1.03 | 1.33 | 0.632 | 0.478 | 0.473 | 0.721 |
| LCLC-103H | 0.454 | 0.475 | – | 0.463 | 0.446 | 0.759 | 0.771 | 0.824 | 0.79 | 0.783 | 0.858 | 0.745 | 0.626 | 0.858 | 0.577 | 0.449 | 0.409 | 0.533 |
| NCI-H441 | 0.252 | 0.275 | 0.233 | 0.277 | 0.282 | 1.41 | 0.841 | 0.911 | 1.1 | 0.655 | 1.2 | 1.25 | 1.07 | 0.902 | 0.6 | 0.581 | 0.558 | 0.737 |
